Results from paper PMC7252619 (PLoS ONE, 2020).
Read-outs that look alike come from different tables or passages of the source.

Tests used:
human CD19+ B cells = assay: B-cell assay: IgG production of ODN2006-stimulated primary B cells (AlphaLISA); type: cell-based
[1] = tested on: human PBMCs (responder cells) with RPMI1788 stimulator cells; assay: Mixed Lymphocyte Reaction (MLR, T cell assay), 3H-thymidine incorporation; type: cell-based; conditions: for IC50: mean of 4 independent measures, read-out: T-cell efficacy, MLR IC 50 (µM) Mean
[2] = WST-1 cytotoxicity assay on RPMI1788 cells (B-cell line); type: cell-based, human; conditions: human, RPMI1788 cells (B-cell line), mean of 4 independent measures, read-out: Cytotoxicity, WST-1 RPMI 1788 IC 50 (µM) Mean
Procedure: (§1) Compounds were prepared as 10 mM stock solutions in dimethylsulfoxide (DMSO)and were tested at 50-10-1-0.1-0.01 and 0.001 μM in the 4 assays.
(§2) The human B cell line RPMI1788 (American Type Culture Collection, USA) and the human T cell line Jurkat (European Collection of Cell Cultures, ECACC, England) were maintained in RPMI1640 culture medium (BioWhittaker®, Lonza, Verviers, Belgium) containing 10% foetal calf serum (FCS, HyClone® Thermo Scientific, United Kingdom) and 5 μg/mL gentamicin sulphate (BioWhittaker®, Lonza, Verviers, Belgium) at 37°C and 5% CO2.
(§3) WST-1 assays on RPMI-1788 cells and Jurkat cells were performed as follows: 20 μL of test compound dilution were added to each well containing exponential growing cells and the plates were incubated for 48 h at 37°C, 5% CO2. Untreated cells and positive control (1% triton X-100, for the last 15 min) served as reference for maximum and minimum viability. At the end of incubation 100 μL of supernatant were removed and replaced by 10 μL of WST-1 solution (Cell Proliferation Reagent WST-1, Roche Applied Science).

[3] = WST-1 cytotoxicity assay on Jurkat cells (T-cell line); type: cell-based, human; conditions: human, Jurkat cells (T-cell line), mean of 4 independent measures, read-out: Cytotoxicity, WST-1 Jurkat IC 50 (µM) Mean
Procedure: as §1, §2, §3

VEGFR2 [4] = target: T1, VEGFR2 (Homo sapiens, UniProt P35968); assay: Kinase activity test (ReactionBiology), % enzyme activity relative to DMSO; type: biochemical; parameters: purchased ReactionBiology; conditions: VEGFR2;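 also: VEGFR2 was one member of a ten-kinase screening panel testing marketed FDA-approved drugs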
T1 sequence (P35968 20-1356): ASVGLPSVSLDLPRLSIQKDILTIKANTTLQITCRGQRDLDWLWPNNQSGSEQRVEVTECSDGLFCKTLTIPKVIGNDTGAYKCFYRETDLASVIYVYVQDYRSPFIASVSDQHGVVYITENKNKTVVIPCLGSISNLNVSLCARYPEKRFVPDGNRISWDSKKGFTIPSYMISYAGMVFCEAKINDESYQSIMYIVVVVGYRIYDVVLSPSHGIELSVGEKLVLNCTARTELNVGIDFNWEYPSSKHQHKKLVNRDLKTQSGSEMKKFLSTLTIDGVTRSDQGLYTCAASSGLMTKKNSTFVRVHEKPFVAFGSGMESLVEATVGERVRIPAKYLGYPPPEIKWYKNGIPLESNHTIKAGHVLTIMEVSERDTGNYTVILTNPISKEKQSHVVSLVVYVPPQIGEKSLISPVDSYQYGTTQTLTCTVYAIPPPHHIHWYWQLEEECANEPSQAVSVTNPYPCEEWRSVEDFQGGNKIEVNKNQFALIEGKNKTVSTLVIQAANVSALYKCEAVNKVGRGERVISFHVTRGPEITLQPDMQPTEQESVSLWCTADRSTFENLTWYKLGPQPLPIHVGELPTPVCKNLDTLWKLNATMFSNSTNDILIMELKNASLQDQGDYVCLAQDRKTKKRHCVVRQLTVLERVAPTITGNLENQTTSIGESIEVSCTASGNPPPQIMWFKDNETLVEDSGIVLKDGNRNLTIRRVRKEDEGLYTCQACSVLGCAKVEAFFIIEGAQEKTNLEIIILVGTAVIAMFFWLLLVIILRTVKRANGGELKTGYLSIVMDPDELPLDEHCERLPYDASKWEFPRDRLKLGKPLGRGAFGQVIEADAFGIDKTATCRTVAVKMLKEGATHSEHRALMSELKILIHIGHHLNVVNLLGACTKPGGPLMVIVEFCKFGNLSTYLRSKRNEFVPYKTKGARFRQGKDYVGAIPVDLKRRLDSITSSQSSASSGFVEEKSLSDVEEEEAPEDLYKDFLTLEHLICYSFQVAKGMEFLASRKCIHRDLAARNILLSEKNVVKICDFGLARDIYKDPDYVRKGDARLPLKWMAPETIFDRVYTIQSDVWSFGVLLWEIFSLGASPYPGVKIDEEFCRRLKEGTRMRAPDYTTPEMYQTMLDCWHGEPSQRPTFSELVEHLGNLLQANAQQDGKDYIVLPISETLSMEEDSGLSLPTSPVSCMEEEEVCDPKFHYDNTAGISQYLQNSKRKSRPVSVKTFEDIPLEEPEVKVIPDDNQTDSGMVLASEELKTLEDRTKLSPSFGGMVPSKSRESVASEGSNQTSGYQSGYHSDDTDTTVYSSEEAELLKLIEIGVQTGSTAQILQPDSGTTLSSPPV

VEGFR2 [5] = target: T1, VEGFR2; assay: KINOMEscan competition binding assay, dose response
MLK4 = target: T2, MLK4 (Homo sapiens, UniProt Q5TCX8); type: biochemical; conditions: for % Enzyme Activity (relative to DMSO controls), Data 1: replicate Data 1; for % Enzyme Activity (relative to DMSO controls), Data 2: replicate Data 2
T2 construct: purchased ReactionBiology
T2 sequence (Q5TCX8 whole entry): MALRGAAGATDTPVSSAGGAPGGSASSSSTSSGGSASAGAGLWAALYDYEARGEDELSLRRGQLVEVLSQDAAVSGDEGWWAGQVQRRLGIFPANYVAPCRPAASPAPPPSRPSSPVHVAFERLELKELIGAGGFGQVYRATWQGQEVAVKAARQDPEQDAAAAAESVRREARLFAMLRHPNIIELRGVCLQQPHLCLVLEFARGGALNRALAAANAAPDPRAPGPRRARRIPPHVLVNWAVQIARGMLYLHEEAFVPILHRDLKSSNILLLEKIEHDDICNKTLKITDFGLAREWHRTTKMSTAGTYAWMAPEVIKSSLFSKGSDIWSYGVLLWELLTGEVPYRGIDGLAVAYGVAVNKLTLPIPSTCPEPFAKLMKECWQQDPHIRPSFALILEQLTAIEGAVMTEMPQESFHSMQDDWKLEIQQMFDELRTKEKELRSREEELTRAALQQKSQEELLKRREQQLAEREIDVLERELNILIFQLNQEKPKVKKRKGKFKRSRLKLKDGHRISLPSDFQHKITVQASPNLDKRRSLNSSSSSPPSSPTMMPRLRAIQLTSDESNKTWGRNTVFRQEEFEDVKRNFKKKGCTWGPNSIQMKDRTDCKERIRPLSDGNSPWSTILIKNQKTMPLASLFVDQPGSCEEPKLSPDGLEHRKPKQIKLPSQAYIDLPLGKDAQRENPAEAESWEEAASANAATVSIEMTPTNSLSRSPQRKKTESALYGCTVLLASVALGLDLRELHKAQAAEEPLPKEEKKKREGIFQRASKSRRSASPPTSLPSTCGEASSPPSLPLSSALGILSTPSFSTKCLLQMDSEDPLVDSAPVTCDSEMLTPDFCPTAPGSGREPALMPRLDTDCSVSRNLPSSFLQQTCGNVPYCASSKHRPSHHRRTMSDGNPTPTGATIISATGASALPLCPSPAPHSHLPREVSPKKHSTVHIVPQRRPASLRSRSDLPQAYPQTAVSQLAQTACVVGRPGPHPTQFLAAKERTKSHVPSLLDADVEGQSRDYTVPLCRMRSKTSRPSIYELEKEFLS

RPMI1788 cells = assay: WST-1 cytotoxicity assay on RPMI1788 cells (B-cell line); type: cell-based, human; conditions: 48 h; mean of 4 independent measures; read-out: Cytotoxicity, WST-1 RPMI 1788 IC 50 (µM) Mean
Procedure: as §1, §2, §3

Jurkat cells = assay: WST-1 cytotoxicity assay on Jurkat cells (T-cell line); type: cell-based, human; conditions: 48 h; mean of 4 independent measures; read-out: Cytotoxicity, WST-1 Jurkat IC 50 (µM) Mean
Procedure: as §1, §2, §3

## Cc1ccc(C(=O)Nc2ccc(S(=O)(=O)O)c3cc(S(=O)(=O)O)cc(S(=O)(=O)O)c23)cc1NC(=O)c1cccc(NC(=O)Nc2cccc(C(=O)Nc3cc(C(=O)Nc4ccc(S(=O)(=O)O)c5cc(S(=O)(=O)O)cc(S(=O)(=O)O)c45)ccc3C)c2)c1 [Suramin, reference compound]
Human CD19+ B cells; Homo sapiens, B-cell, 168 h, IgG production, ODN2006 0.1 μM, 7 days, mean of 4 independent experiments, read-out: B-cell IC50
  IC50: 35.2 µM
[1]; Homo sapiens, RPMI-1788
  IC50: 29.8 µM
[1]; ratio of IC50 values
  Selectivity Index (SI) MLR/B-cell: 0.85
[2]
  IC50 at 48 h: > 50 µM
[3]
  IC50 at 48 h: > 50 µM
VEGFR2 [4]; 1 uM, Average, read-out: % Enzyme Activity (relative to DMSO controls), Average
  remaining activity at 1 µM: 72.7%
VEGFR2 [4]; 1 uM, replicate Data 1, read-out: % Enzyme Activity (relative to DMSO controls), Data 1
  remaining activity at 1 µM: 73.6%
VEGFR2 [4]; 1 uM, replicate Data 2, read-out: % Enzyme Activity (relative to DMSO controls), Data 2
  remaining activity at 1 µM: 71.8%
VEGFR2 [4]; 10 uM, Average, read-out: % Enzyme Activity (relative to DMSO controls), Average
  remaining activity at 10 µM: 6.48%
VEGFR2 [4]; 10 uM, replicate Data 1, read-out: % Enzyme Activity (relative to DMSO controls), Data 1
  remaining activity at 10 µM: 7.02%
VEGFR2 [4]; 10 uM, replicate Data 2, read-out: % Enzyme Activity (relative to DMSO controls), Data 2
  remaining activity at 10 µM: 5.94%
VEGFR2 [4]; compound 1μM, relative to DMSO controls, read-out: % Enzyme activity at 1μM
  remaining activity at 1 µM: 72.7%
VEGFR2 [4]; compound 10μM, relative to DMSO controls, read-out: % Enzyme activity at 10μM
  remaining activity at 10 µM: 6.48%
VEGFR2 [5]
  Kd: 25 µM

## CC(=O)Nc1nnc(S(N)(=O)=O)s1 [Acetazolamide]
MLK4; 1 uM
  % Enzyme Activity (relative to DMSO controls), Average: 106.03%
  % Enzyme Activity (relative to DMSO controls), Data 1: 105.08%
  % Enzyme Activity (relative to DMSO controls), Data 2: 106.98%
MLK4; 10 uM
  % Enzyme Activity (relative to DMSO controls), Average: 98.49%
  % Enzyme Activity (relative to DMSO controls), Data 1: 99.01%
  % Enzyme Activity (relative to DMSO controls), Data 2: 97.97%

## COc1c(C)c2c(c(O)c1C/C=C(\C)CCC(=O)OCCN1CCOCC1)C(=O)OC2 [Mycophenolate Mofetyl]
Human CD19+ B cells; mean of 4 independent measures, read-out: B-cell efficacy, B cell IC 50 (µM) Mean
  IC50: 0.723 µM
[1]
  IC50: 0.121 µM
RPMI1788 cells
  IC50: 0.487 µM
Jurkat cells
  IC50: 0.552 µM
